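Dose response: 5 concentrations. Exposure: 48 h. Format: 96-well plates. Endpoint: linear interpolation; highest concentration if not reached. TGI denotes the concentration required for complete inhibition of growth.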
What was measured:
Test in all cases: NCI tumour cell line growth inhibition, 48 h
HCT-116 colon = test system: HCT-116 colon
RXF 393 renal = test system: RXF 393 renal
NCI-H23 lung = test system: NCI-H23 lung
KM12 colon = test system: KM12 colon
CAKI-1 renal = test system: CAKI-1 renal
UO-31 renal = test system: UO-31 renal
NCI-H226 lung = test system: NCI-H226 lung
IGROV1 ovarian = test system: IGROV1 ovarian
OVCAR-8 ovarian = test system: OVCAR-8 ovarian
OVCAR-4 ovarian = test system: OVCAR-4 ovarian
XF 498 CNS = test system: XF 498 CNS
ACHN renal = test system: ACHN renal
MALME-3M melanoma = test system: MALME-3M melanoma
SNB-78 CNS = test system: SNB-78 CNS
K-562 leukemia = test system: K-562 leukemia
HOP-62 NSCLC = test system: HOP-62 NSCLC
COLO 205 colon = test system: COLO 205 colon
UACC-62 melanoma = test system: UACC-62 melanoma
DLD-1 colon = test system: DLD-1 colon
SR leukemia = test system: SR leukemia
LOX IMVI melanoma = test system: LOX IMVI melanoma
DMS 273 small cell lung = test system: DMS 273 small cell lung
A549 NSCLC = test system: A549 NSCLC
SF-539 CNS = test system: SF-539 CNS
SK-MEL-28 melanoma = test system: SK-MEL-28 melanoma
HCC-2998 colon = test system: HCC-2998 colon
SNB-19 CNS = test system: SNB-19 CNS
HOP-92 NSCLC = test system: HOP-92 NSCLC
M19-MEL melanoma = test system: M19-MEL melanoma
HT29 colon = test system: HT29 colon
SK-MEL-5 melanoma = test system: SK-MEL-5 melanoma
A498 renal = test system: A498 renal
M14 melanoma = test system: M14 melanoma
MOLT-4 leukemia = test system: MOLT-4 leukemia
LXFL 529 NSCLC = test system: LXFL 529 NSCLC
TK-10 renal = test system: TK-10 renal
OVCAR-3 ovarian = test system: OVCAR-3 ovarian
U251 CNS = test system: U251 CNS
HL-60(TB) leukemia = test system: HL-60(TB) leukemia
RXF-631 renal = test system: RXF-631 renal
NCI-H460 lung = test system: NCI-H460 lung
UACC-257 melanoma = test system: UACC-257 melanoma
HOP-18 NSCLC = test system: HOP-18 NSCLC
SK-OV-3 ovarian = test system: SK-OV-3 ovarian
EKVX NSCLC = test system: EKVX NSCLC
786-0 renal = test system: 786-0 renal
SF-268 CNS = test system: SF-268 CNS
SF-295 CNS = test system: SF-295 CNS
DMS 114 small cell lung = test system: DMS 114 small cell lung
SW-620 colon = test system: SW-620 colon
HCT-15 colon = test system: HCT-15 colon
RPMI-8226 leukemia = test system: RPMI-8226 leukemia
SN12C renal = test system: SN12C renal
NCI-H522 lung = test system: NCI-H522 lung
CCRF-CEM leukemia = test system: CCRF-CEM leukemia
SK-MEL-2 melanoma = test system: SK-MEL-2 melanoma
SNB-75 CNS = test system: SNB-75 CNS
SN12K1 renal = test system: SN12K1 renal
P388/ADR leukemia = test system: P388/ADR leukemia
OVCAR-5 ovarian = test system: OVCAR-5 ovarian
MCF7 breast = test system: MCF7 breast
KM20L2 colon = test system: KM20L2 colon
NCI/ADR-RES ovarian = test system: NCI/ADR-RES ovarian
P388 leukemia = test system: P388 leukemia

CCN(CC)c1ccc(N=Nc2ccc([N+](=O)[O-])cc2OC(=O)/C=C/c2ccccc2)c(OC(=O)/C=C/c2ccccc2)c1
TGI (HCT-116 colon): > 100 µM
TGI (RXF 393 renal): > 100 µM
TGI (NCI-H23 lung): > 100 µM
TGI (KM12 colon): > 35.8 µM
TGI (CAKI-1 renal): > 100 µM
TGI (UO-31 renal): > 100 µM
TGI (NCI-H226 lung): > 100 µM
TGI (IGROV1 ovarian): > 100 µM
TGI (OVCAR-8 ovarian): > 100 µM
TGI (OVCAR-4 ovarian): > 100 µM
TGI (XF 498 CNS): > 100 µM
TGI (ACHN renal): > 100 µM
TGI (MALME-3M melanoma): > 100 µM
TGI (SNB-78 CNS): > 100 µM
TGI (K-562 leukemia): > 100 µM
TGI (HOP-62 NSCLC): > 100 µM
TGI (COLO 205 colon): > 100 µM
TGI (UACC-62 melanoma): > 74.8 µM
TGI (DLD-1 colon): > 100 µM
TGI (SR leukemia): > 100 µM
TGI (LOX IMVI melanoma): > 100 µM
TGI (DMS 273 small cell lung): > 100 µM
TGI (A549 NSCLC): > 100 µM
TGI (SF-539 CNS): > 27.9 µM
TGI (SK-MEL-28 melanoma): > 100 µM
TGI (HCC-2998 colon): > 100 µM
TGI (SNB-19 CNS): > 100 µM
TGI (HOP-92 NSCLC): > 100 µM
TGI (M19-MEL melanoma): > 100 µM
TGI (HT29 colon): > 100 µM
TGI (SK-MEL-5 melanoma): > 100 µM
TGI (A498 renal): > 58.4 µM
TGI (M14 melanoma): > 100 µM
TGI (MOLT-4 leukemia): > 100 µM
TGI (LXFL 529 NSCLC): > 100 µM
TGI (TK-10 renal): > 100 µM
TGI (OVCAR-3 ovarian): > 100 µM
TGI (U251 CNS): > 100 µM
TGI (HL-60(TB) leukemia): > 44 µM
TGI (RXF-631 renal): > 100 µM
TGI (NCI-H460 lung): 11.1 µM
TGI (UACC-257 melanoma): 99.7 µM
TGI (HOP-18 NSCLC): 9.04 µM
TGI (SK-OV-3 ovarian): > 100 µM
TGI (EKVX NSCLC): > 100 µM
TGI (786-0 renal): > 100 µM
TGI (SF-268 CNS): > 100 µM
TGI (SF-295 CNS): > 100 µM
TGI (DMS 114 small cell lung): > 25.2 µM
TGI (SW-620 colon): > 100 µM
TGI (HCT-15 colon): > 100 µM
TGI (RPMI-8226 leukemia): > 100 µM
TGI (SN12C renal): > 100 µM
TGI (NCI-H522 lung): > 100 µM
TGI (CCRF-CEM leukemia): > 100 µM
TGI (SK-MEL-2 melanoma): > 100 µM
TGI (SNB-75 CNS): > 100 µM

O=C1C=C2SC3C[C@@]24CC1[N+]1=c2c4c(c(O)c4c2=C(C=N4)CC1)N3
TGI (HCT-116 colon): 3.35 µM
TGI (RXF 393 renal): 3.84 µM
TGI (SN12K1 renal): 3.76 µM
TGI (KM12 colon): 4.74 µM
TGI (CAKI-1 renal): 7.99 µM
TGI (UO-31 renal): 30.3 µM
TGI (NCI-H226 lung): 4.76 µM
TGI (IGROV1 ovarian): 6.48 µM
TGI (OVCAR-8 ovarian): 4.21 µM
TGI (OVCAR-4 ovarian): 3.13 µM
TGI (XF 498 CNS): 3.34 µM
TGI (MALME-3M melanoma): 3.3 µM
TGI (SNB-78 CNS): 5.88 µM
TGI (K-562 leukemia): 8.26 µM
TGI (HOP-62 NSCLC): 32.6 µM
TGI (COLO 205 colon): 3.57 µM
TGI (UACC-62 melanoma): 3.23 µM
TGI (DLD-1 colon): 5.12 µM
TGI (P388/ADR leukemia): 23.1 µM
TGI (OVCAR-5 ovarian): 3.9 µM
TGI (LOX IMVI melanoma): 6.65 µM
TGI (DMS 273 small cell lung): 4.12 µM
TGI (A549 NSCLC): 21.2 µM
TGI (SF-539 CNS): 3.34 µM
TGI (MCF7 breast): 4.23 µM
TGI (SK-MEL-28 melanoma): 4.09 µM
TGI (HCC-2998 colon): 6.78 µM
TGI (SNB-19 CNS): 9.66 µM
TGI (HOP-92 NSCLC): > 100 µM
TGI (M19-MEL melanoma): 3.44 µM
TGI (HT29 colon): > 26 µM
TGI (SK-MEL-5 melanoma): 3.44 µM
TGI (A498 renal): 16.6 µM
TGI (KM20L2 colon): 3.81 µM
TGI (MOLT-4 leukemia): 4.11 µM
TGI (OVCAR-3 ovarian): 2.51 µM
TGI (NCI/ADR-RES ovarian): 16.1 µM
TGI (U251 CNS): 3.33 µM
TGI (HL-60(TB) leukemia): 3.78 µM
TGI (P388 leukemia): 4.15 µM
TGI (NCI-H460 lung): 9.03 µM
TGI (UACC-257 melanoma): 3.17 µM
TGI (HOP-18 NSCLC): 18.9 µM
TGI (SK-OV-3 ovarian): 7 µM
TGI (EKVX NSCLC): 4.8 µM
TGI (SF-268 CNS): 2.9 µM
TGI (SF-295 CNS): 11.6 µM
TGI (DMS 114 small cell lung): 2.85 µM
TGI (SW-620 colon): 5.44 µM
TGI (HCT-15 colon): 13.7 µM
TGI (RPMI-8226 leukemia): 7.38 µM
TGI (SN12C renal): 6.95 µM
TGI (NCI-H522 lung): 2.99 µM
TGI (CCRF-CEM leukemia): > 100 µM
TGI (SK-MEL-2 melanoma): 3.35 µM
TGI (SNB-75 CNS): 12.2 µM

Source: PubChem BioAssay (NCI)
